Key:
Format in all cases: physicochemical
[1] = Determination of the in-vitro SPF on PMMA plates (Labsphere UV-200S, Colipa method)
Method: (§1) Determination of the in-vitro SPFs and UVA-PF
(§2) The SPF boosting and UVA-PF boosting test is carried out as in-vitro determination of SPFs.
(§3) Principle: The formulation to be tested (emulsion, solution) is weighed on PMMA plates with the help of an analytical balance. The formulation if distributed and incorporated on the plate using a method corresponding to the formulation. The thus prepared plates are then measured on a Labsphere device and the results are calculated as SPF with a suitable software.
(§4) PMMA plates (Polymethylmethacrylate), measuring 3 cm×8.5 cm (WVVW5 plates based on […] “Determination of UVA photoprotection in vitro” with 5μ roughness by Schonberg GmbH & Co. AG) are used to perform an SPF measurement.
(§5) A reference sample is obtained by distributing 25 to 28 mg glycerin (99.5%) with the index finger on the roughened side of the PMMA plate. The glycerin film must be very thin and uniform. Subsequently, this plate is stored for at least 2 hours.
(§6) The reference plate is measured with the following transmission values:
(§7) The sample to be measured should be homogeneously mixed with a spatula before application. 1.2 mg/cm2 of sample is evenly distributed in several rows of dots on the PMMA plate. In order to minimise the evaporation of the sample during weighing, this process must be carried out quickly. The sample is then evenly distributed by hand with a finger previously saturated with the sample material. The distribution takes place in two phases: • Phase 1: Fast and uniform distribution with a slight pressure until the emulsion is broken. • Phase 2: The sample is massaged into the rough surface with strong pressure and the process should last 30 seconds. In this context under strong pressure means that when massaged on a scale, this indicates at least […].
(§8) Sun oils: The product quantity is generally 1.3 mg/cm^2. For strongly spreading oils, less product is applied, as the amount of oil cannot be “absorbed” from the plate. Then the amount of application should be reduced to 1.0-0.75 mg/cm^2. Application method here is also the 30 s fast/light and 30 s strong method. • Sun sprays: The “30/30 method” applies here (especially for thicker sprays). • For very liquid sprays (similar to water): • Fast and uniform distribution with a slight pressure, until the emulsion “breaks”. • The process should take 45 s.
(§9) The finished sample plates are stored dust-free and measured at the earliest after 15 minutes.
(§10) The samples are measured using the UV-200S device, using the specified Colipa method. The Labsphere user manual also applies.
(§11) A new “Study” is opened via File and then the “Colipa Guideline 2011” method is selected under the heading “Study”. In the new window “Colipa Method Options” the number of plates (3 plates), the measuring points per plate (5 measuring points) and the in vivo SPF and, if necessary, the irradiance intensity of the external irradiance device (Solar Simulator Irradiance) entered. • The irradiance set on the external device is 765 W/m2 as standard. The complete naming of the sample is done via Study”, “Study Information”.
At the beginning of the measurement, a blank value of the glycerin reference sample is measured (“scan blank plate”). In order to determine the SPF of a sample, a total of 15 measuring points (3 plates of 5 measuring points) are then created (“Scan Location”).
• After the first measurement run, the device calculates an irradiation dose (Irradiation Dose/J/cm2) and the duration (exposure time) for each plate. The plates are irradiated in the external irradiation device (irradiation duration=average value of the 3 plates).
The calculation of irradiation dose and exposure time is based on the irradiance (765 W/m^2) set on the external device. […]

[2] = Determination of the in-vitro UVA-PF on PMMA plates (Labsphere UV-200S, Colipa method, post irradiation)
Method: UVA-photoprotection is expressed in UVA-protection factor (UVA-PF). UVA-PF is similar to SPF in that it is a measure of how well a sunscreen protects the skin from UVA radiation. It is performed in a similar manner by irradiating the skin with UVA. This can be done in vivo with human skin or in vitro, where it is performed by applying the sunscreen to an PMMA plate (Polymethymethacrylate plate) and measuring how much UVA passes through the slide with or without the sunscreen. To characterize protection from UVA radiation, the PPD (Persistent Pigment Darkening) method, which measures the color of the skin observed 2 to 4 hours after exposure of the skin to UVA radiation, is used. The PPD method appears to correlate well with the in vitro UVA-PF testing.
as §1, §2, §3, §4, §5, §6, §7, §8, §9, §10, §11
(§12) At the beginning of the measurement, a blank value of the glycerin reference sample is measured (“scan blank plate”). […]

[3] = Critical wavelength of the sunscreen formulation (post irradiation)
From the text: The term “broad-spectrum photo-protection” means photo-protection from both UVA and UVB radiation. Broad-spectrum is based on the breadth of protection offered by a sunscreen in the UVA and UVB spectrums. In order for a sunscreen to be considered broad-spectrum, it must have achieved a critical wavelength of at least 370 nm, meaning that 10% of the protection that the sunscreen offers has to be for wavelengths above 370 nm. A critical wavelength>370 nm is a rigorous minimum that sunscreen products should achieve to be labelled as broad-spectrum”.
The term “critical wavelength” is defined as the wavelength at which the area under the UV protection curve (% protection versus wavelength) represents 90% of the total area under the curve in the UV region (280-400 nm). […]
In order to calculate the critical wavelength (λc), mathematical integration of the measured spectral absorbance from […] to 400 nm is performed to calculate the area beneath the absorbance curve. The critical wavelength value is based upon the inherent shape and breadth of the absorbance cure, not its amplitude. The critical wavelength is the wavelength below which 90% of the area under the absorbance curve sides. […]
The samples are measured using the UV-200S device, using the specified Colipa method. […]
as §12

[4] = 1.0% by weight added to sunscreen with modern organic UV-filter mixture (Example 1; control SPF 31.7)
[5] = 1.0% by weight, classic organic UV-filter combination (Example 3)
[6] = 1.0% by weight, classic organic UV-filter combination (Example 3; control SPF 33.7)
[7] = 1.0% by weight, modern organic UV-filter mixture (Example 1)
[8] = 3.0% by weight added to sunscreen with modern organic UV-filter mixture (Example 1; control SPF 31.7)
[9] = 3.0% by weight, classic organic UV-filter combination (Example 3)
[10] = 3.0% by weight, classic organic UV-filter combination (Example 3; control SPF 33.7)
[11] = 3.0% by weight, modern organic UV-filter mixture (Example 1)
[12] = 3.0%, modern organic UV-filter mixture (Example 1)

| Compound | in vitro SPF [1, 4] | in vitro SPF higher than reference sample without MAA [1, 5] [%] | in vitro SPF [1, 6] | in vitro SPF higher than reference sample without MAA [1, 7] [%] | in vitro SPF [1, 8] | in vitro SPF higher than reference sample without MAA [1, 9] [%] | in vitro SPF [1, 10] | in vitro SPF higher than reference sample without MAA [1, 11] [%] | improvement of the UVA-PF compared to the control sample [2, 12] [%] | improvement of the UVA-PF compared to the control sample ([2]; 1.0%, classic organic UV-filter combination (Example 3)) [%] | improvement of the UVA-PF compared to the control sample ([2]; 1.0%, modern organic UV-filter mixture (Example 1)) [%] | improvement of the UVA-PF compared to the control sample ([2]; 3.0%, classic organic UV-filter combination (Example 3)) [%] | critical wavelength ([3]; 1.0% and 3.0%, classic sunscreen composition (Example 3; without MAA 380 nm)) [nm] | critical wavelength ([3]; 3.0%, modern sunscreen composition (Example 1; without MAA 378 nm)) [nm] | in vitro SPF higher than control/reference sample without MAA ([1]; 1.0% by weight, modern organic UV-filter mixture of Example 2) [%] | in vitro SPF ([1]; 1.0% by weight, modern organic UV-filter mixture of Example 2 (control SPF 52.4)) | improvement of the UVA-PF compared to the control sample ([2]; 1.0%, modern organic UV-filter mixture of Example 2) [%] |
| --- | --- | --- | --- | --- | --- | --- | --- | --- | --- | --- | --- | --- | --- | --- | --- | --- | --- |
| CCOC(=O)CNC1=C/C(=N/c2ccccc2)CC(C)(C)C1 [MAA-1, ethyl 2-[[5,5-dimethyl-3-phenylimino-cyclohexen-1-yl]amino]acetate] | 53.4 | 5.0 | 35.4 | 68.5 | 86.1 | 61.4 | 54.4 | 171.6 | 9.35 |  |  |  |  |  |  |  |  |
| COc1ccc(/N=C2\CC(C)(C)CC3=C2SCC(C(=O)O)N3)cc1OC (centres unmarked) [MAA-13, 8-((3,4-dimethoyxphenyl)imino)-6,6-dimethyl-3,4,5,6,7,8-hexahydro-2-H-benzol[b][1,4]thiazine-3-carboxylic acid] | 34.4 | 7.7 | 36.3 | 8.52 | 39.8 | 87.2 | 63.1 | 25.6 | 30.75 | 3.2 | 14.8 | 5.2 | 381 | 379 |  |  |  |
| CC1(C)CC(NCC(=O)O)=C/C(=N/c2ccccc2)C1 [MAA-20, 2-[(5,5-dimethyl-3-phenylimino-cyclohexen-1-yl)amino]acetic acid] |  |  |  |  |  |  |  |  |  |  |  |  |  |  | 9 | 57.1 | 18.2 |

Reference: patent US20260034042A1, “Composition with Improved SPF and UVA Photoprotection” (Symrise AG, priority 2022, published 2026)
